Data on 23 molecules can be found in ChEMBL document CHEMBL1133506, “3-(3,5-Dimethoxyphenyl)-1,6-naphthyridine-2,7-diamines and related 2-urea derivatives are potent and selective inhibitors of the FGF receptor-1 tyrosine kinase” (J Med Chem, 2000).

Some results are limits rather than exact numbers.

For experiment [1], the target named is T1, Fibroblast growth factor receptor 1 (Homo sapiens, UniProt P11362).
Description: Inhibition of the phosphorylation of a random glutamate-tyrosine (4:1) copolymer by isolated Fibroblast growth factor receptor 1.
The target in experiment [2] is Platelet-derived growth factor receptor beta (Mus musculus, UniProt P05622).
Platelet-derived growth factor receptor beta, sequence (P05622 whole entry): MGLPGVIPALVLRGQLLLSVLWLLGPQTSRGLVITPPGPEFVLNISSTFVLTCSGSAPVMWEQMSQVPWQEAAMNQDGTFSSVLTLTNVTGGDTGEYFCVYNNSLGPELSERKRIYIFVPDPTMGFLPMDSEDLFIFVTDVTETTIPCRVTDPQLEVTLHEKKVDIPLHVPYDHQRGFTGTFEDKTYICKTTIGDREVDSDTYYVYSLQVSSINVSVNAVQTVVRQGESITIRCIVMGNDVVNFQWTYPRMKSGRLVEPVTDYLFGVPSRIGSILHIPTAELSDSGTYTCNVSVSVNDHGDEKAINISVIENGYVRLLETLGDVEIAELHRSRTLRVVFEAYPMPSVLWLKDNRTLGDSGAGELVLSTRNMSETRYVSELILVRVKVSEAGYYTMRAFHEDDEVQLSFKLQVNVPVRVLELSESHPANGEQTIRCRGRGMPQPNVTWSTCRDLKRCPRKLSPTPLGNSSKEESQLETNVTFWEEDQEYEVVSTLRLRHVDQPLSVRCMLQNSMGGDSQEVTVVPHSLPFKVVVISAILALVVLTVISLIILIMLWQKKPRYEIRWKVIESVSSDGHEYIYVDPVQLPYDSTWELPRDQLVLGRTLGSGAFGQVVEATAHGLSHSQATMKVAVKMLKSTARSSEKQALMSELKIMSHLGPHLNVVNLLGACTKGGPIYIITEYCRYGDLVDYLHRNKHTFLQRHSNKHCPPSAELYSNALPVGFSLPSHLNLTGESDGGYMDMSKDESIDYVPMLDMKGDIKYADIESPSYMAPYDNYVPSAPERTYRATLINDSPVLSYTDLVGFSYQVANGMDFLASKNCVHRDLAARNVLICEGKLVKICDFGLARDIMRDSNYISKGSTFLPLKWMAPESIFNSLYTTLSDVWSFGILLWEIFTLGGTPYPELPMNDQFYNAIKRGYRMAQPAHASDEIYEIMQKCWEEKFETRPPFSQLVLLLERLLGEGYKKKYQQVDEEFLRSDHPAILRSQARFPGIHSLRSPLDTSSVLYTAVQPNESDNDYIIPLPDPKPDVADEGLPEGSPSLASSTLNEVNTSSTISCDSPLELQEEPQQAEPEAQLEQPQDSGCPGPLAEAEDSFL
Description: Inhibition of the phosphorylation of a random glutamate-tyrosine (4:1) copolymer by isolated mouse Platelet-derived growth factor protein.
The target of experiment [3] is T1, Fibroblast growth factor receptor 1. The experiment can be described thus: Inhibition of bFGF-mediated tyrosine phosphorylation. Type of experiment: functional.
Experiment [4] concerns Ovarian cancer cell line. The experiment can be described thus: Inhibition of human ovarian carcinoma (A90) FGF-R overexpressing cell proliferation.
For experiment [5], the system named is C6. The experiment can be described thus: Inhibition of PDGF-dependent rat glioma C6 cell proliferation.
In experiment [6] the test system is HUVEC. Briefly: Inhibition of in vitro cell Human umbilical vein endothelial (HUVEC) cell proliferation.
Experiment [7] deals with M5076. Briefly: Ratio of treated to control tumor mass on last therapy day in M5076 sarcoma murine tumor at 200 mg/kg. Type of experiment: functional, Mus musculus.
The subject of experiment [8] is Mus musculus. The experiment can be described thus: Difference in days for treated (T) and control (C) tumors to reach 750 mg in mammary 16/c murine tumor at 80 mg/kg. The experiment is classed as functional.
Experiment [9] has as its system Lewis lung carcinoma cell line. Briefly: Weight change in lewis lung murine tumor at 200 mg/kg peroral dose for days 4-12. Type of experiment: functional, Mus musculus. As to conditions: route oral.
In experiment [10] the test system is Mus musculus. Briefly: Difference in days for the treated (T) and control (C) tumors to reach 750 mg in lewis lung murine tumor at 200 mg/kg. The experiment is classed as functional.
Experiment [11] relates to Mus musculus. Briefly: Weight change in mammary 16/c murine tumor at 200 mg/kg peroral dose for days 1-9. Type of experiment: functional, organism-based. Also on record: dose 200 mg/kg.
The test system of experiment [12] is Mus musculus. Briefly: Weight change in mammary 16/c murine tumor at 80 mg/kg peroral dose for schedule q12hx2, days 1-9. The experiment is classed as functional. The conditions noted are these: route oral.
Experiment [13] deals with HUVEC. The experiment can be described thus: Inhibition of Matrigel invasion assay in HUVEC cells. The experiment is classed as functional, cell-based. The conditions noted are these: Homo sapiens.
Experiment [14] has as its system Mus musculus. Briefly: Ratio of treated to control tumor mass on last therapy day in lewis lung murine tumor at 200 mg/kg dose. The experiment is classed as functional.
Experiment [15] concerns M5076. Briefly: Weight change in murine M5076 sarcoma tumor at 200 mg/kg peroral dose days 8-16. The experiment is classed as functional, organism-based. Also noted: dose 200 mg/kg. The conditions noted are these: Mus musculus.
Experiment [16] concerns M5076. The experiment can be described thus: Difference in days for treated (T) and control (C) tumors to reach 750 mg in murine M5076 sarcoma tumor at 200 mg/kg. The experiment is classed as functional, Mus musculus.
The subject of experiment [17] is Mus musculus. Briefly: Difference in days for treated (T) and control (C) tumors to reach 750 mg in mammary 16/c murine tumor at 200 mg/kg. The experiment is classed as functional.
For experiment [18], the system named is Mus musculus. The experiment can be described thus: Ratio of treated to control tumor mass on last therapy day in mammary 16/c murine tumor at 200 mg/kg dose. The experiment is classed as functional.
In experiment [19] the test system is HUVEC. Briefly: (§1) Inhibition of microcapillary growth in HUVEC cells. The experiment is classed as functional, cell-based. The conditions noted are these: Homo sapiens.
Experiment [20] has as its target Proto-oncogene tyrosine-protein kinase Src (Gallus gallus) (UniProt P00523). The experiment can be described thus: Inhibition of the phosphorylation of a random glutamate-tyrosine (4:1) copolymer by isolated avian c-Src protein.
Experiment [21] has as its system HUVEC. Described as §1. The conditions noted are these: Homo sapiens.

T1 sequence (P11362 whole entry): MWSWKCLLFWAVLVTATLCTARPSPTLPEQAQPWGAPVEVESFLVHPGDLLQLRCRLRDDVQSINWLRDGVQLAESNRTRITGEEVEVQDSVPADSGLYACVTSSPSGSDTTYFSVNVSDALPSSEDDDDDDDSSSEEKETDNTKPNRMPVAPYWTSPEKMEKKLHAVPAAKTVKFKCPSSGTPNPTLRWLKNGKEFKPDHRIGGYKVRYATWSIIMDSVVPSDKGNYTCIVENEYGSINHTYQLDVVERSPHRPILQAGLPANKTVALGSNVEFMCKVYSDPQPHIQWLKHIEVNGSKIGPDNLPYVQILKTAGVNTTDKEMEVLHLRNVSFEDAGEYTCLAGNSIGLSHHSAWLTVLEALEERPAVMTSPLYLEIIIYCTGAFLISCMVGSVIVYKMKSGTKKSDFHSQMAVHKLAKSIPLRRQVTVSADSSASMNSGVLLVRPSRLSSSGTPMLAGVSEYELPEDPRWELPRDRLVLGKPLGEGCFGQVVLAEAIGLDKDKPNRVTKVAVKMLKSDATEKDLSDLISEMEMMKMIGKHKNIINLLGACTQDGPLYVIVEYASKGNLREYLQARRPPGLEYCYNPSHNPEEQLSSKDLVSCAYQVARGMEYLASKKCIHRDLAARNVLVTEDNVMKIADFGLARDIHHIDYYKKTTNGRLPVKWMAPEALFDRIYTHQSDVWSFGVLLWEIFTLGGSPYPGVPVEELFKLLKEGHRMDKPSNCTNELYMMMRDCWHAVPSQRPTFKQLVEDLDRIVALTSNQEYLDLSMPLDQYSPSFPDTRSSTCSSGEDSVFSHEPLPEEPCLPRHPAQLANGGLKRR

Regarding `CC(C)(C)NC(=O)Nc1nc2nc(N)ncc2cc1-c1c(Cl)cccc1Cl`, the results for the IC50 in experiment [1] and in [2] were 0.13 µM and 1.1 µM, respectively.

Turning to `Cc1c[nH]c(/C=C2\C(=O)Nc3ccccc32)c1CCC(=O)O`, the IC50 in experiment [3] came out at 20 µM.

As to `CC(C)(C)NC(=O)Nc1nc2cc(N)ncc2cc1-c1ccccc1`, the results for the IC50 in experiment [1] and in experiment [2] were 1.9 µM and 2.6 µM, respectively.

As for `CCNC(=O)Nc1nc2cc(N)ncc2cc1-c1cc(OC)cc(OC)c1`, the IC50 in experiment [1] was 0.029 µM; in experiment [4], 9.3 µM; in experiment [2], greater than 50 µM; in experiment [5] it was 8 µM; in experiment [6], 0.17 µM.

Take `COc1cc(OC)cc(-c2cc3cnc(NC(C)=O)cc3nc2NC(=O)NC(C)(C)C)c1`: the T/C in experiment [7] is 78%; in experiment [14], 109%; in experiment [18], 0%. Further, the IC50 is 0.025 µM in experiment [1]; 12 µM in [4]; 4.7 µM in [2]; 0.65 µM in [5]; 0.007 µM in experiment [13]; 0.01 nM in experiment [19]. Further, in experiment [6], the IC50 is 0.004 µM. Further, the T-C in experiment [8] came to 10.8 days; in [10], 0 days; in [16] it was 1 days; in [17], 11.3 days. Also, the Weight change was -0.4 g in experiment [9], “Weight gain” in [11], -0.7 g in experiment [12] and “Weight gain” in [15].

Regarding `COc1cc(OC)cc(-c2cc3cnc(N)cc3nc2N)c1`, the IC50 in experiment [1] is 0.2 µM; in [4] it was 17 µM; in [2], greater than 50 µM; in experiment [5], 8.9 µM; in experiment [6], 0.82 µM.

For `COc1cc(OC)cc(-c2cc3cnc(NC(=O)NC(C)(C)C)cc3nc2NC(=O)NC(C)(C)C)c1`, the IC50 in [1] was 0.16 µM; in experiment [4], 11 µM; in experiment [2], greater than 50 µM; in experiment [5], 13 µM; in experiment [19], 10 nM; in experiment [6], 0.017 µM.

Turning to `COc1cc(OC)cc(-c2cc3cnc(N)nc3nc2NC(=O)NC(C)(C)C)c1`, the IC50 is 0.6 µM in experiment [1]; 15 µM in experiment [4]; greater than 25 µM in experiment [5]; 1.1 µM in experiment [13]; 100 nM in experiment [19]; 0.58 µM in experiment [6].

With `Cn1c(SSc2c(C(=O)Nc3ccccc3)c3ccccc3n2C)c(C(=O)Nc2ccccc2)c2ccccc21`, the concentration for half-maximal inhibition (IC50) in [3] was 4.5 µM.

Turning to `COc1cc(OC)cc(-c2cc3cnc(NC(=O)C(F)(F)F)cc3nc2N)c1`, the IC50 was 0.061 µM in experiment [1]; 17 µM in [4]; greater than 50 µM in experiment [2]; 9 µM in [5]; 4.9 µM in experiment [6].

On to `Nc1ncc2cc(-c3c(Cl)cccc3Cl)c(N)nc2n1`, for which the midpoint of inhibition in experiment [20], the IC50, lay at 0.21 µM.

Consider `CC(C)(C)NC(=O)Nc1nc2cc(N)ncc2cc1-c1c(Cl)cccc1Cl`, for which the results for the IC50 in experiment [1] and in experiment [2] were 0.12 µM and 1.8 µM, respectively.

With `COc1cc(OC)cc(-c2cc3cnc(N)cc3nc2NC(=O)NC(C)(C)C)c1`, the IC50 in experiment [1] was 0.042 µM; in experiment [4], 1.2 µM; in [2], 38 µM; in experiment [5] it was 8.5 µM; in [13] it was greater than 10 µM; in [19] it was 100 nM. This molecule also yielded an IC50 in [6] of 0.0055 µM.

With `COC(=O)C1=C(c2ccccc2)c2ccccc2C1=O`, in experiment [3], half-maximal inhibition (IC50) required 5.1 µM.

As for `CCNC(=O)Nc1nc2cc(N)ncc2cc1-c1ccccc1`, the IC50 is 1.3 µM in experiment [1] and 7.7 µM in experiment [2].

Consider `CNC(=O)Nc1nc2cc(N)ncc2cc1-c1cc(OC)cc(OC)c1`, for which the 50% inhibitory concentration (IC50) in experiment [1] was 0.095 µM; in experiment [2] it was greater than 50 µM.

With `CCNC(=O)Nc1nc2cc(N)ncc2cc1-c1c(Cl)cccc1Cl`, the IC50 in [1] is 0.15 µM; in experiment [2], 11 µM.

As to `COc1cc(OC)cc(-c2cc3cnc(N)cc3nc2NC(=O)Nc2ccccc2)c1`, the IC50 was 0.51 µM in experiment [1] and greater than 50 µM in experiment [2].

For `Nc1cc2nc(N)c(-c3ccccc3)cc2cn1`, the half-inhibitory concentration (IC50) in experiment [1] and in experiment [2] was 17 µM each time.

For the molecule `COc1cc(OC)cc(-c2cc3cnc(N)nc3nc2N)c1`, the IC50 in [1] is 0.23 µM; in experiment [2], greater than 50 µM.

For the molecule `Nc1cc2nc(N)c(-c3c(Cl)cccc3Cl)cc2cn1`, the IC50 in [1] worked out at 2.8 µM; in experiment [2] it was 35 µM.

The molecule `CCNC(=O)Nc1nc2nc(N)ncc2cc1-c1c(Cl)cccc1Cl` yielded an IC50 in [1] of 0.13 µM.

As to `COc1cc(OC)cc(-c2cc3cnc(NCCCN4CCOCC4)cc3nc2NC(=O)NC(C)(C)C)c1`, the IC50 in experiment [4] amounted to 0.92 µM; in experiment [21], 0.001 µM; in [2], 45 µM; in [5], 3.1 µM; in experiment [6] it was 0.085 µM.
